From publication PMC9560627, “Targeting Echinococcus multilocularis PIM kinase for improving anti-parasitic chemotherapy” (PLoS Neglected Tropical Diseases, 2022)
pIC50: −log10 of the molar value. Like-named read-outs stand apart in the source and are kept apart here.

Experiments:
[1] = test system: E. multilocularis MV; test: Mature metacestode vesicle (MV) assay, structural integrity by microscopy; format: cell-based, Echinococcus multilocularis; settings: for structural vesicle damage of MV (screen of 20 in silico compounds): 3 and 10 μM
Method: In mature MV assays, 10 individual MV each were cultured in 2 ml of conditioned medium (100% A6 medium) in the presence of inhibitors in 12 well plates under axenic conditions for 28 d as described in [39]. […] Structural integrity of MV was assessed using an optical microscope (Nikon eclipse Ts2-FL). Experimental set-up and execution of inhibitor studies and structural integrity assessment was performed by independent experimenters. Criteria for intact or damaged vesicles were essentially as previously described. All experiments were performed using 3 biological replicates. Percentages of structurally intact vesicles were statistically analyzed with one-way ANOVA with Dunnet’s multiple comparison tests in Graphpad prism 9.3.1(Graphpad software).

[2] = test system: E. multilocularis PC; test: Vesicle formation assay (MV formation from PC); format: cell-based, Echinococcus multilocularis
Method: In vesicle formation assays, PC were isolated as described above and 100 U of isolated PC (~1.5×10^4 cells/well) were seeded in 96 well plates with 200 μl of conditioned medium (50% A6 medium + 50% B4 medium) for 21 d under nitrogen atmosphere. The number of newly formed vesicles was counted using an optical microscope (Nikon eclipse Ts2-FL) essentially as previously described. Kruskal-Wallis test followed by Dunn’s multiple comparisons test was used in GraphPad Prism version 9.3.1(Graphpad software) to analyze the difference of vesicle numbers in control and treatment groups. In this analysis, all concentrations were compared with the negative control DMSO. Experiments with SGI-1776 and CX-6258 were performed in three biological and technical replicates. Experiments with SGI-1776 and Z196138710 were performed in three technical replicates.

[3] = test system: HEK293T cells; test: Mammalian cell toxicity, Cell Titer Glo 2.0 viability; format: cell-based, human; settings: for pIC50: read-out: IC50 against HEK293T cells
Method: (§1) The toxicity of inhibitors against mammalian cells was evaluated by treatment of the commonly used cell lines HEK293T [42] and HepG2 [43], which were cultivated and passaged as described in [43, 44]. […] 24 h after seeding, 50 μl of DMEM+GlutaMAX-I including FBS and inhibitors were added. Final concentrations of inhibitors were adjusted to 0–30 μM as indicated, DMSO alone was used as a control. Plates were incubated for 3 d under aerobic conditions and cell viability was measured using the Cell Titer Glo 2.0 system (Promega) according to the manufacturer’s instructions. Luminescence was measured by a Spectramax iD3 Multi-mode Microplate reader (Molecular Devices). Three independent experiments with three technical replicates were carried out for both cell lines. Luminescence units were normalized to the DMSO control of each independent experiment and expressed as percentage of luminescence unit. One-Way-ANOVA test followed by Tukey’s multiple comparisons test was used in GraphPad Prism version 9.3.1 (Graphpad software) for statistical analysis. Based on the cell viability data, dose-response curves were drawn and IC50 (best fit value) were calculated using GraphPad Prism version 9.3.1 (Graphpad software).

[4] = test system: HepG2 cells; test: as above; format: cell-based, human; settings: for pIC50: read-out: IC50 against HepG2 cells
Method: as §1

[5] = test system: human Pim-1; settings: cited from earlier work
[6] = test system: human Pim-2; settings: cited from earlier work
[7] = test system: human Pim-3; settings: cited from earlier work
[8] = test system: FLT3; settings: cited from earlier work
[9] = test system: haspin; settings: cited from earlier work
[10] = test system: E. multilocularis PC; test: Cell viability assay (Cell Titer Glo 2.0) on E. multilocularis primary cell cultures (PC), initial kinase inhibitor screen; format: cell-based, Echinococcus multilocularis; settings: for inhibition at 10 µM: Echinococcus multilocularis, read-out: growth inhibition of Echinococcus PC
[11] = test system: a broad variety of other cell types, including chronic lymphocytic leukemia cells; design: method as in PMID 22052829, PMID 19734450; settings: read-out: in vitro IC50 against a broad variety of other cell types; cited from earlier work
[12] = cited from earlier work
[13] = test system: solid tumour xenografts; design: method as in PMID 22052829, PMID 25589932; settings: mice, plasma concentrations around 3 μM free compound; cited from earlier work
[14] = design: method as in PMID 30370255; settings: non-Hodgkin lymphoma and prostate cancer; cited from earlier work
[15] = test system: human Ether-á-go-go-related (hERG) cardiac ion channel; settings: cited from earlier work
[16] = test system: E. multilocularis; design: method as in PMID 26389799; settings: cited from earlier work
[17] = test system: Echinococcus; settings: ref PMID:9593125; cited from earlier work
[18] = response to reviewers, ref literature, not numbered at the place

With CN1CCCN(C(=O)c2cccc(-c3ccc(/C=C4/C(=O)Nc5ccc(Cl)cc54)o3)c2)CC1 [CX-6258] the “effect on structural integrity of mature MV” value (“effect on structural integrity” below) ([1]; 3 μM, 28 d) was “did not lead to statistically significant effects”, the “effect on structural integrity” value ([1]; 10 μM, 28 d) was “drastic loss of structural integrity of all” and the “MV formation from stem cells (PC)” value ([2]; 3 μM, 21 d) was “drastically affected MV formation”. The “MV formation from stem cells (PC)” value ([2]; concentrations higher than 3 μM, 21 d) was “completely inhibited MV development”, the “effect on HEK293T cells” value ([3]; 30 and 10 μM, 3 d) was “fully eliminated” and the pIC50 ([3]; 3 d, cell viability) was ~6.00. For the same compound, the “effect on HepG2 cells” value ([4]; 30 and 10 μM, 3 d) was “fully eliminated”, the pIC50 ([4]; 3 d, cell viability) was ~6.00 and the pIC50 ([5]; read-out: IC50 Pim-1) was […]. The pIC50 ([6]; read-out: IC50 Pim-2) was 7.60, the pIC50 ([7]; read-out: IC50 Pim-3) was 7.80 and the pIC50 ([8]; read-out: IC50 FLT3) was 6.87. The “activity against haspin kinase” value ([9]; melanoma cell lines) was “much higher IC50 values than against Pim-1 and Pim-3”.

For Cc1nc(Nc2ncc(C(=O)Nc3c(C)cccc3Cl)s2)cc(N2CCN(CCO)CC2)n1 [Dasatinib], the “effect on parasite PC proliferation” value ([10]; 10 μM, 3 d and 7 d) was “stimulated parasite cell proliferation”.

In the case of CN1CCC(CNc2ccc3ncc(-c4cccc(OC(F)(F)F)c4)n3n2)CC1 [SGI-1776], the inhibition at 10 µM ([10]; 72 h) was ~60%, the inhibition at 10 µM ([10]; 168 h) was ~80% and the “effect on structural integrity” value ([1]; 3 μM, 28 d) was “did not lead to statistically significant effects”. For the same compound, the “effect on structural integrity” value ([1]; 10 μM, 28 d) was “almost all”, the “MV formation from stem cells (PC)” value ([2]; 3 μM, 21 d) was “did not lead to statistically significant effects” and the “MV formation from stem cells (PC)” value ([2]; 10 μM, 21 d) was “almost completely”. The “MV formation from stem cells (PC)” value ([2]; 30 μM, 21 d) was “completely prevented”, the “effect on HEK293T cells” value ([3]; 30 and 10 μM, 3 d) was “fully eliminated” and the pIC50 ([3]; Homo sapiens, HEK-293T, 72 h) was ~6.00. For the same compound, the “effect on HepG2 cells” value ([4]; 30 and 10 μM, 3 d) was “fully eliminated”, the pIC50 ([4]; Homo sapiens, HepG2, 72 h) was ~6.00 and the pIC50 ([5]; read-out: IC50 against human Pim-1) was […]. For the same compound, the pIC50 ([6]; read-out: IC50 against human Pim-2) was 6.44, the pIC50 ([7]; read-out: IC50 against human Pim-3) was 7.16 and the pIC50 ([8]; read-out: IC50 against FLT3) was 7.36. For the same compound, the pIC50 ([9]; read-out: IC50 against haspin) was 7.47, the pIC50 [11] was ~5.52 and the “compound bound to plasma proteins” value ([12]; in vivo application in mice) was “around 95%”. The “well tolerated plasma concentration of free compound (not bound to plasma proteins)” value ([12]; mice) was “around 3 μM”, the “concentration of free (unbound) compound achieved in the plasma of mammals” value [12, 18] was […] and the “drug bound to human plasma protein” value [12, 18] was “about 95%”. For the same compound, the “efficacy against solid tumour xenografts” value [13] was “effective against solid tumour xenografts in mice”, the “toxicity in clinical phase I trials” value [14] was “toxicity in cardiac electric cycle prolongation” and the “cause of toxicity in clinical trials: hERG” value [15] was “off-target effects”.

With Cc1noc(C)c1COc1cccc(C(=O)N2CCC(C(N)=O)CC2)c1 [Z30898879] the “structural vesicle damage of MV (screen of 20 in silico compounds)” value (from here on “structural vesicle damage of MV”) ([1]; 28 d) was “highly effective in inducing structural vesicle damage”.

In the case of CN(C)C(=O)CN1CCN(Cc2nc3scc(-c4ccccc4Cl)c3c(=O)[nH]2)CC1 [Z65225039], the “structural vesicle damage of MV” value ([1]; 28 d) was “highly effective in inducing structural vesicle damage”.

With COc1cc(CNc2ncnc3ccsc23)ccc1OC(F)F [Z196138710, N-(4-(difluoromethoxy)-3-methoxybenzyl)-thieno-[3,2-d]-pyrimidin-4-amine] the “concentration effective against the parasite, mature MV” value [1] was 10 µM, the “structural disintegration of MV” value ([1]; 10 μM, 28 d) was 100% and the “structural vesicle damage of MV” value ([1]; 28 d) was “highly effective in inducing structural vesicle damage”. For the same compound, the “concentration effective against the parasite, stem cell cultures” value [2] was 3 µM, the “MV formation from stem cells (PC)” value ([2]; 10 μM, 21 d) was “completely prevented MV formation” and the “MV development from primary cells, comparison with SGI-1776” value ([2]; different concentrations, 21 d) was “effects similar to those of SGI-1776”. For the same compound, the “inhibition of HEK293T cells” value ([3]; 30 and 10 μM, 3 d) was 40–60%, the pIC50 ([3]; Homo sapiens, HEK-293T, 72 h, 3 d, cell viability) was 4.96 and the “inhibition of HepG2 cells” value ([4]; 30 and 10 μM, 3 d) was 40–60%. For the same compound, the pIC50 ([4]; Homo sapiens, HepG2, 72 h, 3 d, cell viability) was 4.80.

With CCC1CN(Cc2nc3cc(OC)c(OC)cc3c(=O)[nH]2)CCO1 (stereo not drawn) [Z354576500] the “structural vesicle damage of MV” value ([1]; 28 d) was “highly effective in inducing structural vesicle damage”.

For CCCSc1ccc2nc(NC(=O)OC)[nH]c2c1 [albendazole], the “efficacy against the parasite in AE patients” value [16] is given as “effective against the parasite in only one third of cases”.

In the case of COC(=O)Nc1nc2ccc(C(=O)c3ccccc3)cc2[nH]1 [mebendazole], the “efficacy against the parasite in AE patients” value [16] is given as “effective against the parasite in only one third of cases” and the “in vitro active concentrations” value [17] is given as 1 to 10 µM.
